Source: PMC9848300, “Discovery of novel enasidenib analogues targeting inhibition of mutant isocitrate dehydrogenase 2 as antileukaemic agents” (Journal of Enzyme Inhibition and Medicinal Chemistry, 2023)

Experiments:
Type in all cases: cell-based
SK-OV-3 = assay: NCI 60 antitumor screening (single dose); details: Homo sapiens; SK-OV-3 (ovarian cancer), single dose 10 μM; read-out: Growth inhibition percentage (GI %)
Method in brief: (§1)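 Values are GI% (100 − G%) from the NCI 60-line single-dose screen, compound at 10 μM.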

NCI-H23 = assay: NCI 60 antitumor screening (single dose); details: Homo sapiens; NCI-H23 (non-small cell lung cancer), single dose 10 μM; read-out: Growth inhibition percentage (GI %)
Method in brief: as §1

OVCAR-4 = assay: NCI 60 antitumor screening (single dose); details: Homo sapiens; OVCAR-4 (ovarian cancer), single dose 10 μM; read-out: Growth inhibition percentage (GI %)
Method in brief: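 NCI-60 one-dose screen. Dose: 10 μM. Lines: 60 human tumour lines, nine tissue types. Output: GI% = 100 − G%.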

HCT-116 = assay: NCI 60 antitumor screening (single dose / five doses); details: Homo sapiens; HCT-116 (colon cancer), single dose 10 μM; read-out: Growth inhibition percentage (GI %)
SK-MEL-28 = assay: as above; details: Homo sapiens; SK-MEL-28 (melanoma), single dose 10 μM; read-out: Growth inhibition percentage (GI %)
IGROV1 = assay: as above; details: Homo sapiens, IGROV-1; IGROV1 (ovarian cancer), single dose 10 μM; read-out: Growth inhibition percentage (GI %)
[1] = test system: 60 human subpanel cancer cell lines; assay: NCI 60 antitumor screening, mean over the panel (single dose); details: mean over 60 cancer cell lines, single dose 10 μM
Experimental: Initially, the anticancer effects of target compounds have been assessed at a single (10 μM) dose. The obtained data have been reported as mean-graph of the percent growth (G%) of the treated cancer cells. Percentage growth inhibition (GI%) is calculated (100 − G%) and pronounced in Table 1. […] Target compounds in series (III) with manipulated linkers disclosed lower potency. Superiorly, eight s-triazine derivatives from the three series (6a, 6c, 6d, 7a, 7g, 7i, 7l, and 8b) have shown potent broad-spectrum anticancer activity against most the examined cell lines, whereas most of the remaining triazine derivatives, 20 derivatives, have exerted selective anti-proliferative actions towards certain cancer cell lines (Supplementary).
The antitumor screening was performed for 60 human cancer cell lines under the protocol of NCI (www.dtp.nci.nih.gov), the Drug Evaluation Branch, Bethesda, MD. All submitted compounds were nominated based on the degree of structural diversity and computer modelling techniques for evaluation of their anticancer activity. The screening process for antineoplastic activity passes through two successive levels, starting with the assessment of target compounds at a single dose of 10 μM against 60 cancer cell lines on nine types of human tumours. These experiments were done on a triplicate following. The output from the single‐dose screening was covered as a mean graph, and then, analysed by the COMPARE program. Finally, the compounds which disclosed subpanel cancer cell growth (G %) equal to or less than 10% in at least eight cancer cell lines get to pass the assessment against the 60 cell lines at five doses (0.01–100 μM). By using GraphPad Prism version 9.0 (Graphpad Software Inc., La Jolla, CA), GI50, TGI, as well as LC50 dose‐response parameters were computed and presented for each compound (Supplementary information)[55–57].

COLO 205 = assay: NCI 60 antitumor screening (single dose / five doses); details: Homo sapiens; COLO 205 (colon cancer), single dose 10 μM; read-out: Growth inhibition percentage (GI %)
MDA-MB-435 = assay: as above; details: Homo sapiens; MDA-MB-435 (melanoma), single dose 10 μM; read-out: Growth inhibition percentage (GI %)
SK-MEL-2 = assay: as above; details: Homo sapiens; SK-MEL-2 (melanoma), single dose 10 μM; read-out: Growth inhibition percentage (GI %)
MDA-MB-468 = assay: as above; details: Homo sapiens; MDA-MB-468 (breast cancer), single dose 10 μM; read-out: Growth inhibition percentage (GI %)
MOLT-4 = assay: as above; details: Homo sapiens; MOLT-4 (leukaemia), single dose 10 μM; read-out: Growth inhibition percentage (GI %)
HL-60(TB) = assay: as above; details: Homo sapiens; HL-60(TB) (leukaemia), single dose 10 μM; read-out: Growth inhibition percentage (GI %)
LOX IMVI = assay: as above; details: Homo sapiens; LOX IMVI (melanoma), single dose 10 μM; read-out: Growth inhibition percentage (GI %)
EKVX = assay: as above; details: Homo sapiens; EKVX (non-small cell lung cancer), single dose 10 μM; read-out: Growth inhibition percentage (GI %)
SK-MEL-5 = assay: as above; details: Homo sapiens; SK-MEL-5 (melanoma), single dose 10 μM; read-out: Growth inhibition percentage (GI %)
BT-549 = assay: as above; details: Homo sapiens; BT-549 (breast cancer), single dose 10 μM; read-out: Growth inhibition percentage (GI %)
SF-295 = assay: as above; details: Homo sapiens; SF-295 (CNS cancer), single dose 10 μM; read-out: Growth inhibition percentage (GI %)
SNB-75 = assay: as above; details: Homo sapiens; SNB-75 (CNS cancer), single dose 10 μM; read-out: Growth inhibition percentage (GI %)
DU-145 = assay: as above; details: Homo sapiens; DU-145 (prostate cancer), single dose 10 μM; read-out: Growth inhibition percentage (GI %)
RXF 393 = assay: as above; details: Homo sapiens; RXF 393 (renal cancer), single dose 10 μM; read-out: Growth inhibition percentage (GI %)
MDA-MB-231/ATCC = assay: as above; details: Homo sapiens; MDA-MB-231/ATCC (breast cancer), single dose 10 μM; read-out: Growth inhibition percentage (GI %)
UACC-62 = assay: as above; details: Homo sapiens; UACC-62 (melanoma), single dose 10 μM; read-out: Growth inhibition percentage (GI %)
SR = assay: as above; details: Homo sapiens; SR (leukaemia), single dose 10 μM; read-out: Growth inhibition percentage (GI %)
SN 12C = assay: as above; details: Homo sapiens, SN12C; SN 12C (renal cancer), single dose 10 μM; read-out: Growth inhibition percentage (GI %)
HCT-15 = assay: as above; details: Homo sapiens; HCT-15 (colon cancer), single dose 10 μM; read-out: Growth inhibition percentage (GI %)
NCI/ADR-RES = assay: as above; details: Homo sapiens; NCI/ADR-RES (ovarian cancer), single dose 10 μM; read-out: Growth inhibition percentage (GI %)
A498 = assay: as above; details: Homo sapiens; A498 (renal cancer), single dose 10 μM; read-out: Growth inhibition percentage (GI %)

CN(C)c1ccc(/C=N/Nc2nc(N/N=C/c3ccc(N(C)C)cc3)nc(N3CCOCC3)n2)cc1 [compound 6g, 4-[(1e)-(2-{4-[(E)-2-{[4-(dimethylamino)phenyl]methylidene}hydrazin-1-yl]-6-(morpholin-4-yl)-1,3,5-triazin-2-yl}hydrazin-1-ylidene)methyl]-N,N-dimethylaniline]
inhibition at 10 µM (SK-OV-3): -9.91%
inhibition at 10 µM (NCI-H23): 0.65%
inhibition at 10 µM (OVCAR-4): -3.79%
inhibition at 10 µM (HCT-116): 64.3%
inhibition at 10 µM (SK-MEL-28): -5.75%
inhibition at 10 µM (IGROV1): 5.41%
Mean GI % [1]: 14.28%
inhibition at 10 µM (COLO 205): -8.37%
inhibition at 10 µM (MDA-MB-435): -4.43%
inhibition at 10 µM (SK-MEL-2): 1.45%
inhibition at 10 µM (MDA-MB-468): 2.17%
inhibition at 10 µM (MOLT-4): 3.27%
inhibition at 10 µM (HL-60(TB)): 3.26%
inhibition at 10 µM (LOX IMVI): 12.3%
inhibition at 10 µM (EKVX): 4.62%
inhibition at 10 µM (SK-MEL-5): -0.23%
inhibition at 10 µM (BT-549): -5.53%
inhibition at 10 µM (SF-295): 86.2%
inhibition at 10 µM (SNB-75): 12.6%
inhibition at 10 µM (DU-145): 7.27%
inhibition at 10 µM (RXF 393): 6.9%
inhibition at 10 µM (MDA-MB-231/ATCC): 0.47%
inhibition at 10 µM (UACC-62): 2.25%
inhibition at 10 µM (SR): 113%
inhibition at 10 µM (SN 12C): 10.8%
inhibition at 10 µM (HCT-15): 77.6%
inhibition at 10 µM (NCI/ADR-RES): 0.17%

C(=N\Nc1nc(N/N=C/c2ccc3c(c2)OCO3)nc(N2CCOCC2)n1)/c1ccc2c(c1)OCO2 [compound 6k, 2,4-Bis[(E)-2-(2H-1,3-Benzodioxol-5-ylmethylidene)hydrazin-1-yl]-6-(morpholin-4-yl)-1,3,5-triazine]
inhibition at 10 µM (SK-OV-3): -11.8%
inhibition at 10 µM (NCI-H23): 17%
inhibition at 10 µM (OVCAR-4): 8.16%
inhibition at 10 µM (HCT-116): 37.1%
inhibition at 10 µM (SK-MEL-28): 12.8%
inhibition at 10 µM (IGROV1): 24.3%
Mean GI % [1]: 20.69%
inhibition at 10 µM (COLO 205): 40.7%
inhibition at 10 µM (MDA-MB-435): 4.07%
inhibition at 10 µM (SK-MEL-2): 1.68%
inhibition at 10 µM (MDA-MB-468): 32.1%
inhibition at 10 µM (MOLT-4): 47.3%
inhibition at 10 µM (HL-60(TB)): 61.1%
inhibition at 10 µM (LOX IMVI): 30.1%
inhibition at 10 µM (EKVX): 4.47%
inhibition at 10 µM (SK-MEL-5): 14%
inhibition at 10 µM (BT-549): 5.57%
inhibition at 10 µM (SF-295): 9.09%
inhibition at 10 µM (SNB-75): 13.4%
inhibition at 10 µM (DU-145): 23.9%
inhibition at 10 µM (RXF 393): 30.5%
inhibition at 10 µM (MDA-MB-231/ATCC): 0.11%
inhibition at 10 µM (UACC-62): -4.28%
inhibition at 10 µM (SR): 85%
inhibition at 10 µM (SN 12C): 24.1%
inhibition at 10 µM (HCT-15): 41.5%
inhibition at 10 µM (NCI/ADR-RES): 23.3%

COC(=O)C(Cc1ccccc1)Nc1nc(NC(Cc2ccccc2)C(=O)OC)nc(N2CCOCC2)n1 (stereo not drawn) [compound 8c, Methyl 2-({4-[(1-methoxy-1-oxo-3-phenylpropan-2-yl)amino]-6-(morpholin-4-yl)-1,3,5-triazin-2-yl}amino)-3-phenylpropanoate]
inhibition at 10 µM (SK-OV-3): -2.71%
inhibition at 10 µM (NCI-H23): -6.51%
inhibition at 10 µM (OVCAR-4): -6.53%
inhibition at 10 µM (HCT-116): 0.81%
inhibition at 10 µM (SK-MEL-28): -8.72%
inhibition at 10 µM (IGROV1): 1.38%
inhibition at 10 µM (COLO 205): -4.56%
inhibition at 10 µM (MDA-MB-435): -4.67%
inhibition at 10 µM (SK-MEL-2): -11%
inhibition at 10 µM (MDA-MB-468): -7.75%
inhibition at 10 µM (MOLT-4): -1.03%
inhibition at 10 µM (HL-60(TB)): -2.51%
inhibition at 10 µM (LOX IMVI): -5.03%
inhibition at 10 µM (EKVX): -4.54%
inhibition at 10 µM (SK-MEL-5): 1.32%
inhibition at 10 µM (BT-549): -11.7%
inhibition at 10 µM (SF-295): -7.74%
inhibition at 10 µM (SNB-75): 9.51%
inhibition at 10 µM (A498): -7.4%
inhibition at 10 µM (DU-145): -11.6%
inhibition at 10 µM (RXF 393): -12.7%
inhibition at 10 µM (MDA-MB-231/ATCC): -2.54%
inhibition at 10 µM (UACC-62): 9.82%
inhibition at 10 µM (SR): -0.37%
inhibition at 10 µM (SN 12C): -3.62%
inhibition at 10 µM (HCT-15): -6.16%
inhibition at 10 µM (NCI/ADR-RES): -10.6%

O=C(NNc1nc(NNC(=O)c2ccccc2)nc(N2CCOCC2)n1)c1ccccc1 [compound 8d, N'-[4-(morpholin-4-yl)-6-(phenylhydrazido)-1,3,5-triazin-2-yl]benzohydrazide]
inhibition at 10 µM (SK-OV-3): -18.5%
inhibition at 10 µM (NCI-H23): 5.69%
inhibition at 10 µM (OVCAR-4): -10.6%
inhibition at 10 µM (HCT-116): -3.34%
inhibition at 10 µM (SK-MEL-28): -19.5%
inhibition at 10 µM (IGROV1): -2.38%
inhibition at 10 µM (COLO 205): -12.9%
inhibition at 10 µM (MDA-MB-435): -2.63%
inhibition at 10 µM (SK-MEL-2): -13.4%
inhibition at 10 µM (MDA-MB-468): -15.1%
inhibition at 10 µM (MOLT-4): -8.9%
inhibition at 10 µM (HL-60(TB)): -15.3%
inhibition at 10 µM (LOX IMVI): 2.21%
inhibition at 10 µM (EKVX): 3.9%
inhibition at 10 µM (SK-MEL-5): 0.18%
inhibition at 10 µM (BT-549): -9.45%
inhibition at 10 µM (SF-295): -0.06%
inhibition at 10 µM (SNB-75): 9.11%
inhibition at 10 µM (A498): -11%
inhibition at 10 µM (DU-145): -7.98%
inhibition at 10 µM (RXF 393): 0.99%
inhibition at 10 µM (MDA-MB-231/ATCC): -3.73%
inhibition at 10 µM (UACC-62): 4.98%
inhibition at 10 µM (SR): 2.07%
inhibition at 10 µM (SN 12C): -6.53%
inhibition at 10 µM (HCT-15): -2.67%
inhibition at 10 µM (NCI/ADR-RES): 1.24%
